Assay type in all cases: cell-based
One assay concerns the target T1, human NMUR1 receptor (Homo sapiens, UniProt Q9HB89).
T1 construct: expressed in transfected cells; host or cells: CHO-K1
T1 sequence (Q9HB89 1-426): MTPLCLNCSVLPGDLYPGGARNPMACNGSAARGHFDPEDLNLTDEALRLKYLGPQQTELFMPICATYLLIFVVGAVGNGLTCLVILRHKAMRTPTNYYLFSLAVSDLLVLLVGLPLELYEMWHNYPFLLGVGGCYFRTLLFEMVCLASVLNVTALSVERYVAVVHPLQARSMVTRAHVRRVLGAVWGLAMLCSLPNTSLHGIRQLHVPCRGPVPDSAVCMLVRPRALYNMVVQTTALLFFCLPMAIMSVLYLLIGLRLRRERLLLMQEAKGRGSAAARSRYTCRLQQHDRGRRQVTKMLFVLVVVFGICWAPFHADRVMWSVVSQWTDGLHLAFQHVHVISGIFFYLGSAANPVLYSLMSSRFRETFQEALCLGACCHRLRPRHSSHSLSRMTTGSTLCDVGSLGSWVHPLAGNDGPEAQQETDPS
The experiment in a line: IP1 Gq HTRF assay, activation of human NMUR1 in buffer. The conditions noted are these: CHO-K1 cells expressing human NMUR1, stimulation buffer with 0.1% BSA; read-out: EC50 (hNMUR1) buffer. Summed up:
(§1)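 CHO-K1 cells stably expressing human NMUR1 or NMUR2, seeded 24 h before assay, stimulated with peptide agonists (8-point dose-response, 1% DMSO final) in HEPES/HBSS buffer with 50 mM LiCl and 0.1% BSA, pH 7.4, 1 h at 37 °C. IP1 accumulation read by HTRF competition (665/620 nm); EC50 from 4-parameter sigmoidal fit.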

Assay [1] addresses T2, human NMUR2 receptor (Homo sapiens, UniProt Q9GZQ4). As to the kind of experiment: IP1 Gq HTRF assay, activation of human NMUR2 in buffer. The conditions noted are these: CHO-K1 cells expressing human NMUR2, stimulation buffer with 0.1% BSA; read-out: EC50 (hNMUR2) buffer. The arrangement: expressed in transfected cells; host or cells: CHO-K1. Summed up: as §1
A general note: Time-resolved FRET reads energy transfer from a long-lived donor to a nearby acceptor.

The target in assay [2] is T2, human NMUR2 receptor. The experiment in a line: IP1 Gq HTRF assay, activation of human NMUR2 in human plasma. Conditions: CHO-K1 cells expressing human NMUR2, 100% human plasma; read-out: EC50 (hNMUR2) human plasma. The arrangement: expressed in transfected cells; host or cells: CHO-K1. In short, it runs like this: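 CHO-K1 cells stably expressing human NMUR2 exposed to peptide agonists (8-point dose-response) in 100% human plasma with 50 mM LiCl, 1% DMSO, for 1 h at 37° C. IP1 accumulation read by HTRF competition (665/620 nm ratio). EC50 from 4-parameter sigmoidal fit.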

Each structure is given as a SMILES string. Starred links: 1 amine or outer side, 2 acyl side, 3 side chain; linkers in the order of their positions; H or OH if unused. Non-standard residues stand in square brackets, D forms with d. Residues, ends and D or L forms follow the SMILES beside them. *: point of attachment. Pipz(1-CH2CO,4-CH2CH2NH) = O=C(CN1CCN(CCN[*:1])CC1)[*:2]; C18 diacid = O=C(O)CCCCCCCCCCCCCCCCC(=O)*; γGlu = O=C(O)[C@H](CCC(=O)[*:2])N[*:1]; 2Pal = N[C@@H](Cc1ccccn1)C(=O)O; NMeL = CN[C@@H](CC(C)C)C(=O)O; NMeA = CN[C@@H](C)C(=O)O; Nle = CCCC[C@H](N)C(=O)O; Sar = CNCC(=O)O Some results are limits rather than exact numbers.

In general, EC50 refers to the midpoint of the concentration-response curve.

T2 sequence (Q9GZQ4 whole entry): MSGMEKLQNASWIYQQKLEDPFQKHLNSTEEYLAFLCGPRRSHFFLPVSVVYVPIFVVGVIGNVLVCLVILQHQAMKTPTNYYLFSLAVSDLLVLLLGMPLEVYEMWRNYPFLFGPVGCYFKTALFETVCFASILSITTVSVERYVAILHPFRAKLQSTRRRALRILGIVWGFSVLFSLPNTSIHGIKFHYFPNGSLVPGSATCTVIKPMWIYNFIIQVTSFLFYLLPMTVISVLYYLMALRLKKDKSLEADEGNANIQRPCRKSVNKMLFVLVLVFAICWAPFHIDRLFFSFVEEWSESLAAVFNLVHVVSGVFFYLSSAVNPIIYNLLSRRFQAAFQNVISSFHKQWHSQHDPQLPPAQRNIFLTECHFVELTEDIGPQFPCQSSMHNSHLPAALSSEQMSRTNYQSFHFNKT

Consider `CCCC[C@H](NC(=O)[C@H](CC(C)C)N(C)C(=O)[C@H](Cc1ccccc1)NC(=O)[C@H](Cc1ccc(O)cc1)NC(=O)CN1CCN(CCNC(=O)CN(C)C(=O)CN(C)C(=O)CN(C)C(=O)CN(C)C(=O)CN(C)C(=O)CN(C)C(=O)CN(C)C(=O)CN(C)C(=O)CN(C)C(=O)CN(C)C(=O)CN(C)C(=O)CN(C)C(=O)CN(C)C(=O)CN(C)C(=O)CN(C)C(=O)CC[C@H](NC(=O)CC[C@H](NC(=O)CC[C@H](NC(=O)CCCCCCCCCCCCCCCCC(=O)O)C(=O)O)C(=O)O)C(=O)O)CC1)C(=O)N[C@@H](CCCCN)C(=O)N1CCC[C@H]1C(=O)N[C@@H](CCCNC(=N)N)C(=O)NCC(N)=O` [Compound 46, C18DA-gGlu3-Sar15-AEPipAc-Tyr-Phe-NMeLeu-Nle-Lys-Pro-Arg-Gly-NH2] (HELM PEPTIDE1{[O=C(O)CCCCCCCCCCCCCCCCC(=O)[*:2]].[gGlu].[gGlu].[gGlu].[Sar].[Sar].[Sar].[Sar].[Sar].[Sar].[Sar].[Sar].[Sar].[Sar].[Sar].[Sar].[Sar].[Sar].[Sar].[O=C(CN1CCN(CCN[*:1])CC1)[*:2]].Y.F.[meL].[Nle].K.P.R.G.[am]}$$$$V2.0), for which the EC50 was greater than 1 µM on human NMUR1 receptor, 0.013 µM on human NMUR2 receptor [1] and 0.0262 µM at human NMUR2 receptor [2].

In the case of `CCCC[C@H](NC(=O)[C@H](CC(C)C)N(C)C(=O)[C@H](Cc1ccccc1)NC(=O)[C@H](Cc1ccc(O)cc1)NC(=O)CN1CCN(CCNC(=O)CN(C)C(=O)CN(C)C(=O)CN(C)C(=O)CN(C)C(=O)CN(C)C(=O)CN(C)C(=O)CN(C)C(=O)CN(C)C(=O)CN(C)C(=O)CN(C)C(=O)CN(C)C(=O)CN(C)C(=O)CN(C)C(=O)CN(C)C(=O)CN(C)C(=O)CC[C@H](NC(=O)CC[C@H](NC(=O)CC[C@H](NC(=O)CCCCCCCCCCCCCCCCC(=O)O)C(=O)O)C(=O)O)C(=O)O)CC1)C(=O)N[C@@H](CCCCN)C(=O)N(C)[C@@H](C)C(=O)N[C@@H](CCCNC(=N)N)C(=O)NCC(N)=O` [Compound 47, C18DA-gGlu3-Sar15-AEPipAc-Tyr-Phe-NMeLeu-Nle-Lys-NMeAla-Arg-Gly-NH2] (HELM PEPTIDE1{[O=C(O)CCCCCCCCCCCCCCCCC(=O)[*:2]].[gGlu].[gGlu].[gGlu].[Sar].[Sar].[Sar].[Sar].[Sar].[Sar].[Sar].[Sar].[Sar].[Sar].[Sar].[Sar].[Sar].[Sar].[Sar].[O=C(CN1CCN(CCN[*:1])CC1)[*:2]].Y.F.[meL].[Nle].K.[meA].R.G.[am]}$$$$V2.0), the EC50 on human NMUR1 receptor is greater than 1 µM; on human NMUR2 receptor [1], 0.0093 µM; at human NMUR2 receptor [2], 0.0326 µM.

Consider `CCCC[C@H](NC(=O)[C@H](CC(C)C)N(C)C(=O)[C@H](Cc1ccccc1)NC(=O)[C@H](Cc1ccc(O)cc1)NC(=O)CN1CCN(CCNC(=O)CN(C)C(=O)CN(C)C(=O)CN(C)C(=O)CN(C)C(=O)CN(C)C(=O)CN(C)C(=O)CN(C)C(=O)CN(C)C(=O)CN(C)C(=O)CN(C)C(=O)CN(C)C(=O)CN(C)C(=O)CN(C)C(=O)CN(C)C(=O)CN(C)C(=O)CC[C@H](NC(=O)CC[C@H](NC(=O)CC[C@H](NC(=O)CCCCCCCCCCCCCCCCC(=O)O)C(=O)O)C(=O)O)C(=O)O)CC1)C(=O)N[C@@H](Cc1ccccn1)C(=O)N(C)[C@@H](C)C(=O)N[C@@H](CCCNC(=N)N)C(=O)NCC(N)=O` [Compound 48, C18DA-gGlu3-Sar15-AEPipAc-Tyr-Phe-NMeLeu-Nle-2Pal-NMeAla-Arg-Gly-NH2] ({C18 diacid-γGlu-γGlu-γGlu}-[Sar][Sar][Sar][Sar][Sar][Sar][Sar][Sar][Sar][Sar][Sar][Sar][Sar][Sar][Sar][Pipz(1-CH2CO,4-CH2CH2NH)]YF[NMeL][Nle][2Pal][NMeA]RG-NH2), for which the EC50 at human NMUR1 receptor, at human NMUR2 receptor [1] and at human NMUR2 receptor [2] was greater than 1 µM in each case.

Consider `CCCC[C@H](NC(=O)[C@H](CC(C)C)N(C)C(=O)[C@H](Cc1ccccc1)NC(=O)[C@H](Cc1ccc(O)cc1)NC(=O)CN1CCN(CCNC(=O)CN(C)C(=O)CN(C)C(=O)CN(C)C(=O)CN(C)C(=O)CN(C)C(=O)CN(C)C(=O)CN(C)C(=O)CN(C)C(=O)CN(C)C(=O)CN(C)C(=O)CN(C)C(=O)CN(C)C(=O)CN(C)C(=O)CN(C)C(=O)CN(C)C(=O)CC[C@H](NC(=O)CC[C@H](NC(=O)CC[C@H](NC(=O)CCCCCCCCCCCCCCCCCCC(=O)O)C(=O)O)C(=O)O)C(=O)O)CC1)C(=O)N[C@@H](CCCCN)C(=O)N1CCC[C@H]1C(=O)N[C@@H](CCCNC(=N)N)C(=O)NCC(N)=O` [Compound 49, C20DA-gGlu3-Sar15-AEPipAc-Tyr-Phe-NMeLeu-Nle-Lys-Pro-Arg-Gly-NH2] (HELM PEPTIDE1{[O=C(O)CCCCCCCCCCCCCCCCCCC(=O)[*:2]].[gGlu].[gGlu].[gGlu].[Sar].[Sar].[Sar].[Sar].[Sar].[Sar].[Sar].[Sar].[Sar].[Sar].[Sar].[Sar].[Sar].[Sar].[Sar].[O=C(CN1CCN(CCN[*:1])CC1)[*:2]].Y.F.[meL].[Nle].K.P.R.G.[am]}$$$$V2.0), for which the values for the EC50 at human NMUR1 receptor, on human NMUR2 receptor [1] and on human NMUR2 receptor [2] were 1.3 µM, 0.011 µM and 0.0252 µM, respectively.

In the case of `CCCC[C@H](NC(=O)[C@H](CC(C)C)N(C)C(=O)[C@H](Cc1ccccc1)NC(=O)[C@H](Cc1ccc(O)cc1)NC(=O)CN1CCN(CCNC(=O)CN(C)C(=O)CN(C)C(=O)CN(C)C(=O)CN(C)C(=O)CN(C)C(=O)CN(C)C(=O)CN(C)C(=O)CN(C)C(=O)CN(C)C(=O)CN(C)C(=O)CN(C)C(=O)CN(C)C(=O)CN(C)C(=O)CN(C)C(=O)CN(C)C(=O)CC[C@H](NC(=O)CC[C@H](NC(=O)CC[C@H](NC(=O)CCCCCCCCCCCCCCCCCCC(=O)O)C(=O)O)C(=O)O)C(=O)O)CC1)C(=O)N[C@@H](CCCCN)C(=O)N(C)[C@@H](C)C(=O)N[C@@H](CCCNC(=N)N)C(=O)NCC(N)=O` [Compound 50, C20DA-gGlu3-Sar15-AEPipAc-Tyr-Phe-NMeLeu-Nle-Lys-NMeAla-Arg-Gly-NH2] (HELM PEPTIDE1{[O=C(O)CCCCCCCCCCCCCCCCCCC(=O)[*:2]].[gGlu].[gGlu].[gGlu].[Sar].[Sar].[Sar].[Sar].[Sar].[Sar].[Sar].[Sar].[Sar].[Sar].[Sar].[Sar].[Sar].[Sar].[Sar].[O=C(CN1CCN(CCN[*:1])CC1)[*:2]].Y.F.[meL].[Nle].K.[meA].R.G.[am]}$$$$V2.0), the concentration giving a half-maximal response (EC50) at human NMUR1 receptor is greater than 1 µM; on human NMUR2 receptor [1], 0.023 µM; at human NMUR2 receptor [2] it was 0.0699 µM.

Turning to `CCCC[C@H](NC(=O)[C@H](CC(C)C)N(C)C(=O)[C@H](Cc1ccccc1)NC(=O)[C@H](Cc1ccc(O)cc1)NC(=O)CN1CCN(CCNC(=O)CN(C)C(=O)CN(C)C(=O)CN(C)C(=O)CN(C)C(=O)CN(C)C(=O)CN(C)C(=O)CN(C)C(=O)CN(C)C(=O)CN(C)C(=O)CN(C)C(=O)CN(C)C(=O)CN(C)C(=O)CN(C)C(=O)CN(C)C(=O)CN(C)C(=O)CC[C@H](NC(=O)CC[C@H](NC(=O)CC[C@H](NC(=O)CCCCCCCCCCCCCCCCC(=O)O)C(=O)O)C(=O)O)C(=O)O)CC1)C(=O)N[C@@H](Cc1c[nH]cn1)C(=O)N1CCC[C@H]1C(=O)N[C@@H](CCCNC(=N)N)C(=O)NCC(N)=O` [Compound 51, C18DA-gGlu3-Sar15-AEPipAc-Tyr-Phe-NMeLeu-Nle-His-Pro-Arg-Gly-NH2] (HELM PEPTIDE1{[O=C(O)CCCCCCCCCCCCCCCCC(=O)[*:2]].[gGlu].[gGlu].[gGlu].[Sar].[Sar].[Sar].[Sar].[Sar].[Sar].[Sar].[Sar].[Sar].[Sar].[Sar].[Sar].[Sar].[Sar].[Sar].[O=C(CN1CCN(CCN[*:1])CC1)[*:2]].Y.F.[meL].[Nle].H.P.R.G.[am]}$$$$V2.0), the half-maximal effective concentration (EC50) on human NMUR1 receptor is greater than 1 µM; at human NMUR2 receptor [1] it was 0.019 µM; on human NMUR2 receptor [2] it was 0.112 µM.

Take `CCCC[C@H](NC(=O)[C@H](CC(C)C)N(C)C(=O)[C@H](Cc1ccccc1)NC(=O)[C@H](Cc1ccc(O)cc1)NC(=O)CN1CCN(CCNC(=O)CN(C)C(=O)CN(C)C(=O)CN(C)C(=O)CN(C)C(=O)CN(C)C(=O)CN(C)C(=O)CN(C)C(=O)CN(C)C(=O)CN(C)C(=O)CN(C)C(=O)CN(C)C(=O)CN(C)C(=O)CN(C)C(=O)CN(C)C(=O)CN(C)C(=O)CC[C@H](NC(=O)CC[C@H](NC(=O)CC[C@H](NC(=O)CCCCCCCCCCCCCCCCC(=O)O)C(=O)O)C(=O)O)C(=O)O)CC1)C(=O)N(C)[C@@H](CCCNC(=N)N)C(=O)N1CCC[C@H]1C(=O)N[C@@H](CCCNC(=N)N)C(=O)NCC(N)=O` [Compound 52, C18DA-gGlu3-Sar15-AEPipAc-Tyr-Phe-NMeLeu-Nle-NMeArg-Pro-Arg-Gly-NH2] (HELM PEPTIDE1{[O=C(O)CCCCCCCCCCCCCCCCC(=O)[*:2]].[gGlu].[gGlu].[gGlu].[Sar].[Sar].[Sar].[Sar].[Sar].[Sar].[Sar].[Sar].[Sar].[Sar].[Sar].[Sar].[Sar].[Sar].[Sar].[O=C(CN1CCN(CCN[*:1])CC1)[*:2]].Y.F.[meL].[Nle].[meR].P.R.G.[am]}$$$$V2.0): the EC50 on human NMUR1 receptor is 0.2 µM; on human NMUR2 receptor [1], 0.0014 µM; at human NMUR2 receptor [2] it was 0.0064 µM.
